In general, half-life refers to the time needed for the level to fall by half in the phase considered.

Some results are limits rather than exact numbers.

Our source for the half-life values is PubChem BioAssay AID1508604 (National Center for Advancing Translational Sciences (NCATS), 2020).

The data set concerns CD-1 mouse liver cytosol, LC/MS substrate depletion half-life. The experiment in a line: NCATS Mouse Liver Cytosol Stability Profiling. To be noted: at 1 µM; higher = more stable. Here is the method:
Assay submitter (PI): Pranav Shah Ph.D. NIH Center for Advancing Translational Sciences 9800 Medical Center Dr, Rockville MD, 20850 Over the last few decades, chemists have become skilled at designing compounds that avoid cytochrome P (CYP) 450 mediated metabolism. Typical screening assays are performed in liver microsomal fractions and it is possible to overlook the contribution of cytosolic enzymes until much later in the drug discovery process. Few data exist on cytosolic enzyme-mediated metabolism and no reliable tools are available to chemists to help design away from such liabilities. In this study, we screened 1450 compounds for liver cytosol-mediated metabolic stability and extracted transformation rules that might help medicinal chemists in optimizing compounds with these liabilities. […] Matched molecular pairs analysis was performed in conjunction with qualitative-structure activity relationship modeling to identify chemical structure transformations affecting cytosolic stability. The transformation rules were prospectively validated on the test set. In addition, selected rules were validated on a diverse chemical library and the resulting pairs were experimentally tested to confirm whether the identified transformations could be generalized. The validation results, comprising nearly 250 library compounds and corresponding half-life data, are made publicly available. The datasets were also used to generate in silico classification models, based on different molecular descriptors and machine learning methods, to predict cytosol-mediated liabilities. To the best of our knowledge, this is the first systematic in silico effort to address cytosolic enzyme-mediated liabilities (Shah 2020). Reference: Shah, P., Siramshetty, V.B., Zakharov, A.V. et al. Predicting liver cytosol stability of small molecules. J Cheminform 12, 21 (2020). https://doi.org/10.1186/s13321-020-00426-7
Compounds are classified as unstable (t 1/2 < 30 min) or stable (t 1/2 > 30 min). […] Reference: 1. Shah, P. et al. An Automated High-Throughput Metabolic Stability Assay Using an Integrated High-Resolution Accurate Mass Method and Automated Data Analysis Software. Drug Metab Dispos 44, 1653-1661 (2016). PMID 27417180

The compound `O=C1NC2(CCN(C(=O)c3ccc(Cl)c(F)c3)CC2)CC1c1ccccc1` (centres undefined) had a half-life of 1.43 h. To `CCOc1cc(=O)n2c(c1C(=O)Nc1ccc(Cl)c(F)c1)CCCC2` belongs 1.34 h.

`CN1c2cc(C(=O)Nc3ccc(Cl)c(F)c3)ccc2C(=O)N2CCCCC21` (centres undefined) came in with a half-life of 0.524 h. `CN(C1CCOCC1)C1CCN(C(=O)c2ccn[nH]2)CC1` showed a half-life above 2 h.

`Cc1ccc2nc(CO[C@H]3CN(Cc4ccc(Cl)cc4)C[C@H]3F)[nH]c2c1` showed a half-life above 2 h. To `O=C1[C@H]2CN(Cc3ccc(Cl)c(F)c3)C[C@H]2C(=O)N1Cc1ccc2c(c1)OCO2` belongs 0.921 h; to `CCN1c2cc(C(=O)Nc3ccc(Cl)cc3)ccc2C(=O)N2CCCCC21` (centres undefined), 0.429 h; to `COc1cc(=O)n2c(c1C(=O)Nc1ccc(Cl)cc1)CCCC2`, above 2 h.

With `OCC1(CN2CCCC2)CCN(Cc2ccc(Cl)c(F)c2)CC1`, the half-life was 1.21 h.

As for `O=C(Nc1ccc(-c2nnc3n2CCCC3)cc1)c1ccc(Cl)cc1`, the half-life came to 1.95 h. As to `COCC1CN(C(C)=O)CC12CCN(Cc1ccc(Cl)cc1)CC2` (centres undefined), the half-life was above 2 h. The result for `CN1C(=O)CO[C@H]2CN(Cc3ccc(Cl)cc3)C[C@H]21` reads 1.94 h; that for `O=c1[nH]c(N2CCOCC2)nc2c1CCN(Cc1ccc(Cl)cc1)CC2`, above 2 h; that for `CN(C)c1nc2c(c(=O)[nH]1)CCN(Cc1ccc(Cl)cc1)CC2`, 1.91 h.

Consider `CN(Cc1cccnc1)c1nc2c(c(=O)[nH]1)CCN(Cc1ccc(Cl)cc1)CC2`, for which the half-life was found to be 1.24 h. The compound `Cc1noc(-c2nc(-c3ccc(Cl)cc3)no2)n1` returned a half-life of 0.26 h. The result for `Cc1cccc(-c2noc([C@@H]3C[C@@H](O)CN3Cc3ccc(Cl)cc3)n2)c1` reads 0.394 h; that for `O=C1[C@H]2CN(Cc3ccc(Cl)c(F)c3)C[C@H]2C(=O)N1CCc1ccccc1`, 0.621 h. To `O=C1[C@H]2CN(Cc3ccc(Cl)cc3)C[C@H]2C(=O)N1CCc1ccccc1` belongs 0.792 h; to `O=C(Nc1cccc(-c2nnc3n2CCCC3)c1)c1ccn[nH]1`, above 2 h. The result for `CCN1c2cc(C(=O)Nc3ccc(Cl)cc3)ccc2C(=O)N2CCCCCC21` (centres undefined) reads 0.935 h. `CN1c2cc(C(=O)Nc3ccc(Cl)cc3)ccc2C(=O)N2CCCCC21` (centres undefined) displayed a half-life of 1.39 h.

As for `O=C(Nc1cccc(-c2nnc3n2CCCC3)c1)c1ccc(Cl)cc1`, the half-life amounted to 0.941 h. As for `COCC1CN(Cc2ccc(Cl)cc2)CC12CCNCC2` (centres undefined), the half-life was above 2 h.

In turn, `COc1cccc(C(=O)NCC2CCCN(Cc3ccc(Cl)cc3)C2)c1OC` (centres undefined) came in with a half-life above 2 h. The result for `O=c1[nH]c(N2CCOCC2)nc2c1CCN(Cc1ccc(Cl)c(F)c1)CC2` reads 1.54 h. The result for `FC(F)(F)c1ccc2nc([C@H]3CCN(Cc4ccc(Cl)cc4)C3)[nH]c2c1` reads 0.945 h; that for `CCN1c2cc(C(=O)Nc3ccc(Cl)c(F)c3)ccc2C(=O)N2CCCCCC21` (centres undefined), 0.904 h; that for `O=C(Nc1ccc(-c2nnc3n2CCCC3)cc1)c1ccn[nH]1`, above 2 h.

For the compound `CN1c2cc(C(=O)Nc3ccc(Cl)cc3)ccc2C(=O)N2CCCCCC21` (centres undefined), the half-life stood at 1.06 h. The result for `CCOc1cc(=O)n2c(c1C(=O)Nc1ccc(Cl)cc1)CCCC2` reads 1.57 h; that for `O=C1NC2(CCN(C(=O)c3ccc(Cl)cc3)CC2)CC1c1ccccc1` (centres undefined), above 2 h; that for `CN1c2cc(C(=O)Nc3ccc(Cl)c(F)c3)ccc2C(=O)N2CCCCCC21` (centres undefined), 0.383 h. To `COc1ccc(CN2C[C@H]3CN(Cc4ccc(Cl)cc4)CCN3C2=O)cc1` belongs 1.37 h; to `O=C1OCC2(CCN(Cc3ccc(Cl)cc3)C2)N1CCN1CCOCC1` (centres undefined), above 2 h; to `Cn1c([C@H]2CCN(Cc3ccc(Cl)cc3)C2)nc2ccccc21`, above 2 h. Compound `COCC1CN(Cc2ccc(Cl)c(F)c2)CC12CCNCC2` (centres undefined) displayed a half-life above 2 h. As for `O=C1[C@H]2CN(Cc3ccc(Cl)cc3)C[C@H]2C(=O)N1Cc1ccc2c(c1)OCO2`, the half-life came to 1.11 h. For the compound `CN(C)c1nc2c(c(=O)[nH]1)CCN(Cc1ccc(Cl)c(F)c1)CC2`, the half-life is above 2 h. `CN1CCN(c2nc3c(c(=O)[nH]2)CCN(Cc2ccc(Cl)c(F)c2)CC3)CC1`: the half-life is above 2 h. For `CN1CCN(c2nc3c(c(=O)[nH]2)CCN(Cc2ccc(Cl)cc2)CC3)CC1`, the half-life is above 2 h.

`O=C1OCC2(CCN(Cc3ccn[nH]3)C2)N1CCN1CCOCC1` (centres undefined) registered a half-life above 2 h. `CCN1c2cc(C(=O)Nc3ccc(Cl)c(F)c3)ccc2C(=O)N2CCCCC21` (centres undefined) displayed a half-life of 0.412 h. In turn, `CN(C1CCOCC1)C1CCN(C(=O)c2ccc(Cl)cc2)CC1` showed a half-life above 2 h. The result for `COCC1CN(C(C)=O)CC12CCN(Cc1ccc(Cl)c(F)c1)CC2` (centres undefined) reads 1.36 h; that for `COc1cc(=O)n2c(c1C(=O)Nc1ccc(Cl)c(F)c1)CCCC2`, 1.47 h; that for `COc1cccc(C(=O)NCC2CCCN(Cc3ccn[nH]3)C2)c1OC` (centres undefined), above 2 h. The result for `Cc1ccc(-c2ccc3nnc(CNC(=O)c4ccc(Cl)cc4)n3n2)cc1` reads above 2 h. The result for `OCC1(CN2CCCC2)CCN(Cc2ccc(Cl)cc2)CC1` reads 0.908 h.
